Measurements: US8952024B2, “Herbicidal pyrimidone derivatives” (E I du Pont de Nemours and Company, priority 2009, dated 2015)

How the values were obtained:
Assay in all cases: Test B pre-/postemergence plant response
Assay type in all cases: in vivo
[1] = system: Surinam grass (Brachiaria decumbens)
How it was run: (§1)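 Visual injury, 0–100 scale (100 = complete control), rated against controls after 13 to 15 days in greenhouse. Pre-emergence: seeds in loam/sand soil, treated at planting. Post-emergence: 1- to 4-leaf plants (2 to 18 cm) in peat/vermiculite medium. Compounds formulated in non-phytotoxic solvent with surfactant.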

[2] = system: blackgrass (Alopecurus myosuroides)
How it was run: as §1

[3] = system: cocklebur (Xanthium strumarium)
How it was run: as §1

corn (Zea mays) = system: corn (Zea mays)
How it was run: as §1

[4] = system: downy bromegrass (Bromus tectorum)
How it was run: as §1

[5] = system: giant foxtail (Setaria faberii)
How it was run: as §1

[6] = system: goosegrass (Eleusine indica)
How it was run: as §1

[7] = system: green foxtail (Setaria viridis)
How it was run: as §1

[8] = system: johnsongrass (Sorghum halepense)
How it was run: as §1

kochia (Kochia scoparia) = system: kochia (Kochia scoparia)
How it was run: as §1

[9] = system: large crabgrass (Digitaria sanguinalis)
How it was run: as §1

[10] = system: morningglory (Ipomoea coccinea)
How it was run: as §1

soybean (Glycine max) = system: soybean (Glycine max)
How it was run: as §1

[11] = system: velvetleaf (Abutilon theophrasti)
How it was run: as §1

wild oat (Avena fatua) = system: wild oat (Avena fatua)
How it was run: as §1

[12] = system: woolly cupgrass (Eriochloa villosa)
How it was run: as §1

[13] = system: yellow nutsedge (Cyperus esculentus)
How it was run: as §1

[14] = 31 g ai/ha, postemergence, scale 0 to 100, 0 is no effect, 100 is complete control
[15] = Postemergence, 62 g ai/ha, scale 0 (no effect) to 100 (complete control), 13 to 15 days
[16] = Postemergence, 125 g ai/ha, visual rating after 13 to 15 days, scale 0 (no effect) to 100 (complete control)
[17] = Postemergence, 250 g ai/ha, scale 0 to 100 (0 no effect, 100 complete control)
[18] = Preemergence, 31 g ai/ha, scale 0 to 100 (0 no effect, 100 complete control)
[19] = Preemergence, 62 g ai/ha, scale 0 to 100, 0 no effect, 100 complete control
[20] = Preemergence, 125 g ai/ha, scale 0 to 100, 0 no effect, 100 complete control
[21] = 250 g ai/ha, Preemergence, 0 to 100 scale

SMILES: O=C1CCCC(O)=C1C(=O)c1cnc(-c2cccs2)n(-c2ccccc2)c1=O [Compound 66]
- Plant response rating, Surinam Grass [1, 14]: 65
- Plant response rating, Surinam Grass [1, 15]: 70
- Plant response rating, Surinam Grass [1, 16]: 85
- Plant response rating, Surinam Grass [1, 17]: 98
- Plant response rating, Surinam Grass [1, 18]: 35
- Plant response rating, Surinam Grass [1, 19]: 80
- Plant response rating, Surinam Grass [1, 20]: 90
- Plant response rating, Blackgrass [2, 14]: 5
- Plant response rating, Blackgrass [2, 21]: 5
- Plant response rating, Blackgrass [2, 15]: 10
- Plant response rating, Blackgrass [2, 16]: 10
- Plant response rating, Blackgrass [2, 17]: 15
- Plant response rating, Blackgrass [2, 18]: 0
- Plant response rating, Blackgrass [2, 19]: 0
- Plant response rating, Blackgrass [2, 20]: 5
- Plant response rating, Cocklebur [3, 14]: 10
- Plant response rating, Cocklebur [3, 21]: 0
- Plant response rating, Cocklebur [3, 15]: 10
- Plant response rating, Cocklebur [3, 16]: 25
- Plant response rating, Cocklebur [3, 17]: 45
- Plant response rating, Cocklebur [3, 18]: 0
- Plant response rating, Cocklebur [3, 19]: 0
- Plant response rating, Cocklebur [3, 20]: 0
- Plant response rating, Corn (corn (Zea mays); [14]): 25
- Plant response rating, Corn (corn (Zea mays); [21]): 0
- Plant response rating, Corn (corn (Zea mays); [15]): 55
- Plant response rating, Corn (corn (Zea mays); [16]): 70
- Plant response rating, Corn (corn (Zea mays); [17]): 75
- Plant response rating, Corn (corn (Zea mays); [18]): 0
- Plant response rating, Corn (corn (Zea mays); [19]): 0
- Plant response rating, Corn (corn (Zea mays); [20]): 0
- Plant response rating, Bromegrass, Downy [4, 14]: 5
- Plant response rating, Bromegrass, Downy [4, 21]: 0
- Plant response rating, Bromegrass, Downy [4, 15]: 10
- Plant response rating, Bromegrass, Downy [4, 16]: 20
- Plant response rating, Bromegrass, Downy [4, 17]: 25
- Plant response rating, Bromegrass, Downy [4, 18]: 0
- Plant response rating, Bromegrass, Downy [4, 19]: 0
- Plant response rating, Bromegrass, Downy [4, 20]: 0
- Plant response rating, Foxtail, Giant [5, 14]: 65
- Plant response rating, Foxtail, Giant [5, 21]: 80
- Plant response rating, Foxtail, Giant [5, 15]: 75
- Plant response rating, Foxtail, Giant [5, 16]: 80
- Plant response rating, Foxtail, Giant [5, 17]: 95
- Plant response rating, Foxtail, Giant [5, 18]: 15
- Plant response rating, Foxtail, Giant [5, 19]: 20
- Plant response rating, Foxtail, Giant [5, 20]: 75
- Plant response rating, Goosegrass [6, 14]: 65
- Plant response rating, Goosegrass [6, 21]: 98
- Plant response rating, Goosegrass [6, 15]: 65
- Plant response rating, Goosegrass [6, 16]: 70
- Plant response rating, Goosegrass [6, 17]: 95
- Plant response rating, Goosegrass [6, 18]: 35
- Plant response rating, Goosegrass [6, 19]: 75
- Plant response rating, Goosegrass [6, 20]: 90
- Plant response rating, Foxtail, Green [7, 14]: 80
- Plant response rating, Foxtail, Green [7, 21]: 75
- Plant response rating, Foxtail, Green [7, 15]: 85
- Plant response rating, Foxtail, Green [7, 16]: 90
- Plant response rating, Foxtail, Green [7, 17]: 98
- Plant response rating, Foxtail, Green [7, 18]: 0
- Plant response rating, Foxtail, Green [7, 19]: 5
- Plant response rating, Foxtail, Green [7, 20]: 30
- Plant response rating, Johnsongrass [8, 14]: 45
- Plant response rating, Johnsongrass [8, 21]: 98
- Plant response rating, Johnsongrass [8, 15]: 60
- Plant response rating, Johnsongrass [8, 16]: 65
- Plant response rating, Johnsongrass [8, 17]: 65
- Plant response rating, Johnsongrass [8, 18]: 0
- Plant response rating, Johnsongrass [8, 19]: 55
- Plant response rating, Johnsongrass [8, 20]: 85
- Plant response rating, Kochia (kochia (Kochia scoparia); [14]): 80
- Plant response rating, Kochia (kochia (Kochia scoparia); [21]): 85
- Plant response rating, Kochia (kochia (Kochia scoparia); [15]): 85
- Plant response rating, Kochia (kochia (Kochia scoparia); [16]): 90
- Plant response rating, Kochia (kochia (Kochia scoparia); [17]): 98
- Plant response rating, Kochia (kochia (Kochia scoparia); [18]): 80
- Plant response rating, Kochia (kochia (Kochia scoparia); [19]): 80
- Plant response rating, Kochia (kochia (Kochia scoparia); [20]): 85
- Plant response rating, Crabgrass, Large [9, 14]: 50
- Plant response rating, Crabgrass, Large [9, 21]: 100
- Plant response rating, Crabgrass, Large [9, 15]: 55
- Plant response rating, Crabgrass, Large [9, 16]: 65
- Plant response rating, Crabgrass, Large [9, 17]: 70
- Plant response rating, Crabgrass, Large [9, 18]: 70
- Plant response rating, Crabgrass, Large [9, 19]: 85
- Plant response rating, Crabgrass, Large [9, 20]: 95
- Plant response rating, Morningglory [10, 14]: 98
- Plant response rating, Morningglory [10, 15]: 100
- Plant response rating, Morningglory [10, 16]: 100
- Plant response rating, Morningglory [10, 17]: 100
- Plant response rating, Morningglory [10, 18]: 0
- Plant response rating, Morningglory [10, 19]: 20
- Plant response rating, Morningglory [10, 20]: 25
- Plant response rating, Soybean (soybean (Glycine max); [14]): 95
- Plant response rating, Soybean (soybean (Glycine max); [15]): 95
- Plant response rating, Soybean (soybean (Glycine max); [16]): 98
- Plant response rating, Soybean (soybean (Glycine max); [17]): 98
- Plant response rating, Velvetleaf [11, 14]: 85
- Plant response rating, Velvetleaf [11, 15]: 90
- Plant response rating, Velvetleaf [11, 16]: 98
- Plant response rating, Velvetleaf [11, 17]: 100
- Plant response rating, Velvetleaf [11, 18]: 80
- Plant response rating, Velvetleaf [11, 19]: 80
- Plant response rating, Velvetleaf [11, 20]: 95
- Plant response rating, Oat, Wild (wild oat (Avena fatua); [14]): 0
- Plant response rating, Oat, Wild (wild oat (Avena fatua); [15]): 0
- Plant response rating, Oat, Wild (wild oat (Avena fatua); [16]): 5
- Plant response rating, Oat, Wild (wild oat (Avena fatua); [17]): 10
- Plant response rating, Oat, Wild (wild oat (Avena fatua); [18]): 0
- Plant response rating, Oat, Wild (wild oat (Avena fatua); [19]): 0
- Plant response rating, Oat, Wild (wild oat (Avena fatua); [20]): 0
- Plant response rating, Cupgrass, Woolly [12, 14]: 40
- Plant response rating, Cupgrass, Woolly [12, 21]: 75
- Plant response rating, Cupgrass, Woolly [12, 15]: 40
- Plant response rating, Cupgrass, Woolly [12, 16]: 60
- Plant response rating, Cupgrass, Woolly [12, 17]: 75
- Plant response rating, Cupgrass, Woolly [12, 18]: 25
- Plant response rating, Cupgrass, Woolly [12, 19]: 40
- Plant response rating, Cupgrass, Woolly [12, 20]: 60
- Plant response rating, Nutsedge, Yellow [13, 14]: 25
- Plant response rating, Nutsedge, Yellow [13, 15]: 45
- Plant response rating, Nutsedge, Yellow [13, 16]: 65
- Plant response rating, Nutsedge, Yellow [13, 17]: 70
- Plant response rating, Nutsedge, Yellow [13, 18]: 10
- Plant response rating, Nutsedge, Yellow [13, 19]: 30
- Plant response rating, Nutsedge, Yellow [13, 20]: 85
